Results on one compound are retold here after USRE43712E1, “Methods for assaying for antidepressant therapy markers” (The Board of Trustees of the Uniersity of Illinois, priority 2000, dated 2012).

Marks after values point to notes of the source that are not given here.

The test system of this test is Gsα. In words: Sequential detergent extraction (Triton X-100 / Triton X-114) of Gsα from C6-2B glioma membranes. Particulars: C6-2B cells, 10 μM, 3 days; mean ± SEM of 4-5 experiments. The test is classed as cell-based. As to the method:
C6-2B cells (between passages 20 and 40) were grown in 175-cm^2 flasks in Dulbecco's modified Eagle medium, 4.5 g of glucose/L, 10% bovine serum, in a 10% CO2 atmosphere, at 37° C. for 3 days after splitting. […] Male Sprague-Dawley rats weighing 150-200 g were fed ad libitum and maintained in a 12-h light/dark cycle. […] 36:803-838, 1989]. […] Rat cerebral cortex membranes were prepared according to the method of Rasenick et al. [Nature, 294:560-562; 1981].
Membrane proteins were extracted sequentially from C6-2B or rat synaptic membranes as described [Yan et al., J. Neurochem., 66:1489-1495; 1996]. These membranes were stirred on ice in HEPES (15 mM, pH 7.4) containing 1% Triton X-100 for 60 min followed by centrifugation at 100,000 g for 60 min at 4° C. The supernatant was reserved (Triton X-100 extract), and the resulting pellet was resuspended in Tris (15 mM, pH 7.4) containing 1.4% Triton X-114 and 150 mM NaCl. The solution was stirred for 60 min at 4° C. and centrifuged for 30 min at 100,000 g in the cold. The supernatant was saved (Triton X-114 extract). These supernatants and remaining pellet (remainder) were subjected to sodium dodecyl sulfate (SDS)-polyacrylamide gel electophoresis (PAGE) using 10% gels. All of the extraction buffers contained 1 mM PMSF and 1 mM EGTA.
Rat cortex membrane, C6-2B cell membranes, or Triton extracts of each membrane preparation were subjected to SDS-PAGE followed by electrotransfer to polyvinylidene difluoride (PVDF) membrane. The PVDF membrane was incubated with a phosphate-buffered saline/Tween 20 Buffer (140 mM NaCl, […]. 0.1% Tween 20, pH 7.4) and 3% bovine serum albumin. The membrane was then incubated with polyclonal rabbit antisera against the various G protein subunits [RM (Gsα) or 116 (Gi1, Gi2, Gi3α)] at a 1:25,000 (RM) or 1:5,000 (116) dilution (see below for source of antibodies). […] Immunoreactivity was detected with an enhanced chemiluminescence (ECL) western blot detection system (Amersham) in accord with the manufacturer's instructions. The developed autoradiographs were analyzed by densitometry.
A membrane-enriched fraction was prepared (see Example 1), and membrane proteins were extracted sequentially with Triton X-100 (Tx 100) and Triton X-114 (Tx 114). Equal amounts of these extracts were subjected to SDS-PAGE and transferred to PVDF membrane. The long and short forms of Gsα (GsαL and GsαS) from different fractions were identified by immunodetection.
Experiments were conducted according to the method set forth in Example 1 to assess the effects of different antidepressants on the detergent extraction of Gsα from C6-2B glioma cells.
The ratios of the percentage of Gsα extracted by the two detergents in the treatment versus control groups were compared and are set forth in Table 2 as percentage of control (i.e., each Triton X-100 extract was compared with the untreated Triton X-100 extract; the same was done for Triton X-114 extracts as well as the remainder).

In the case of `CNCCC(Oc1ccc(C(F)(F)F)cc1)c1ccccc1` (stereo not shown) [Fluoxetine, fluoxetine], the “GsαL in Triton X-114 extract, % of corresponding value in control group” value is 84.4 ± 2.9^b %; the “GsαS in Remainder, % of corresponding value in control group” value worked out at 99.7 ± 3.1%; the “GsαS in Triton X-100 extract, % of corresponding value in control group” value is 215.9 ± 30.9^a %; the “GsαS in Triton X-114 extract, % of corresponding value in control group” value is 92.2 ± 1.3^b %.
